The source of these data is patent US5405857A, “3-substituted 1,2,3,4,-oxatriazole-5-imine compounds, a process for the preparation thereof and a pharmaceutical preparation containing said compounds” (A/S GEA Farmaceutisk Fabrik, priority 1991, dated 1995).

Data set [1] in a line: LD50 test, intravenous. Also on record: species or system mice. The conditions noted are these: mouse, in vivo, single injection, read-out: LD50 with 95% confidence limits. The method, then:
(§1) Two tests were carried out on male rats, namely a determination of the "maximum tolerable dose" (MTD) and a test using multiple peroral doses. In addition, a LD50 test was carried out intravenously on mice.
(According to Litchfield and Wileoxon, J. Pharmacol. Exp. Therap. 96, 99-113, 1949).
The intravenous LD50 -value was determined after one single injection of different doses of the compound prepared in Example 4.

The subject of data set [2] is PAI-1. The data set is described as follows: Inhibition of plasminogen activator inhibitor (PAI-1) from blood platelets (fibrinolytic activity). The data set is classed as cell-based, human. To be noted: 50 μM, 60 minutes; for % Inhibition of PAI-1 activity: compared to control; for PAI-1 activity: human PRP, control 3.24. The method, then:
Compounds according to the invention were tested for their inhibition of plasminogen activator inhibitor (PAI). An established thrombus comprises aggregated platelets cohered by fibrin. The organism has a fibrinolyric system for maintaining normal physiological conditions. Endogenous plasminogen is activated to plasmin (fibrinolysin, that is a proteolytic enzyme decomposing fibrin) by means of a tissue plasminogen activator (t-PA). The platelets include the enzyme PAI-1 inhibiting the activation of plasminogen to plasmin, and thus also the decomposition of fibrin.
A general stimulation of the fibrinolytic system can cause serious hemostatic side effects (haemorrhages). A specific inhibition of PAI-1 induces an increased fibrinolysis in areas with many platelets, which is exactly the case in thrombi. As a result a thrombolytic effect is obtained.
Human PRP prepared by slight centrifugation as previously mentioned is used, but at a low temperature (4° C.). By incubation of PRP (1 ml in a plastic tube) during a slight shaking at 37° C. the PAI-1 activity is liberated, said PAI-1 activity being measured spectrophotometrically by means of a two-step procedure using commercial kits (Spectrolyse™/fibrin kit from BIOPOOL, Sweden).
The PAI-1 activity of the control PRP and PRP incubated with each of 6 compounds according to the invention and the reference substance sodium niroprusside (NNP) (50 μM of each for 60 minutes) appear from Table 6.

Data set [3] deals with pre-contracted trachea. The data set is described as follows: Relaxation of pre-contracted isolated trachea. Further details: species or system guinea pig. To be noted: Cavia porcellus; carbamylcholine 0.3 μM, Krebs buffer, 37° C. As to the method:
Compounds according to the invention were tested for their ability to relax a pre-contracted trachea. A contraction of the respiratory passages in combination with a swelling of the mucuos membrane therein presents a vital factor at asthmatic conditions. Relaxation or dilation of the contracted respiratory passages will improve the asthmatic condition.
An isolated trachea from a guinea pig is used. After preparation of a strip which has maintained the circular musculature, the organ is divided into two parts of equal size. The two tracheal strips are suspended in their respective organ bath and connected to a transducer recording the contraction and relaxation of the organ by means of a recorder. The two tracheal strips are continuously bathed in a Krebs buffer at 37° C., constantly bubbled with carbogen (95% O2 and 5% CO2). After an equilibration time of about 3 hours the organs are tested for their sensitivity (contractility) to carbamylcholin a bolus being added directly to the bath (0.3 μM). If the contraction is satisfactory, the organs are transferred to the Krebs buffer containing the same concentration of carbamylcholine. The organs are now constantly exposed to the carbamylcholine and slowly develop a permanent contraction ("asthma"). The test substances are in bolus form added directly to the organ bath. After maximum effect (relaxation) the substances are removed by washing out and the tracheal strip reverts to its permanent contraction state. […] An EC50 -value (that is the concentration relaxing the organ by 50% relative to the maximum relaxation) is calculated for each test substance by means of a linear regression analysis (log concentration (μM) as a constant ad abscissa and % relaxation as variable ad ordinate). Sodium nitroprusside (NNP) and SIN-1 are used as reference substances.

The target in data set [4] is T1, soluble guanylate cyclase (Homo sapiens, UniProt Q02153).
T1 construct: The guanylate cyclase activity in the supernatant after incubation with and without the test substance; endogenous in cells; host or cells: human blood platelets, supernatant of homogenate
T1 sequence (Q02153 1-619): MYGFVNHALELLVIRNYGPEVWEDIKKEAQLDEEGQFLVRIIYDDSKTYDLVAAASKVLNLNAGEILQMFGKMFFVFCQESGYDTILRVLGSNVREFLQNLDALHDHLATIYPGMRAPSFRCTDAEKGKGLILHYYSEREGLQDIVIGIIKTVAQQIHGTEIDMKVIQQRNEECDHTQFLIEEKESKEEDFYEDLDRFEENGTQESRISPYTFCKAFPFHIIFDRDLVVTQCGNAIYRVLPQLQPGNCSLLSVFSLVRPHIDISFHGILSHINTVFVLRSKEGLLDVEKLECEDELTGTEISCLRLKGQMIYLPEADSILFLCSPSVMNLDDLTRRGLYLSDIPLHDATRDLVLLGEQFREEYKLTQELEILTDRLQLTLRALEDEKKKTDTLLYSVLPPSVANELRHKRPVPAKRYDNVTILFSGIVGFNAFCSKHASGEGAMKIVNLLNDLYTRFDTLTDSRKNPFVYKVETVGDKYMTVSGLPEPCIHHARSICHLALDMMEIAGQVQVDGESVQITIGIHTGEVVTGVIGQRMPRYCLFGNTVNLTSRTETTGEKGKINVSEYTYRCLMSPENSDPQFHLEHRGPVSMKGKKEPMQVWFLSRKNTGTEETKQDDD
T1 sequence (Q02108 1-690 partner): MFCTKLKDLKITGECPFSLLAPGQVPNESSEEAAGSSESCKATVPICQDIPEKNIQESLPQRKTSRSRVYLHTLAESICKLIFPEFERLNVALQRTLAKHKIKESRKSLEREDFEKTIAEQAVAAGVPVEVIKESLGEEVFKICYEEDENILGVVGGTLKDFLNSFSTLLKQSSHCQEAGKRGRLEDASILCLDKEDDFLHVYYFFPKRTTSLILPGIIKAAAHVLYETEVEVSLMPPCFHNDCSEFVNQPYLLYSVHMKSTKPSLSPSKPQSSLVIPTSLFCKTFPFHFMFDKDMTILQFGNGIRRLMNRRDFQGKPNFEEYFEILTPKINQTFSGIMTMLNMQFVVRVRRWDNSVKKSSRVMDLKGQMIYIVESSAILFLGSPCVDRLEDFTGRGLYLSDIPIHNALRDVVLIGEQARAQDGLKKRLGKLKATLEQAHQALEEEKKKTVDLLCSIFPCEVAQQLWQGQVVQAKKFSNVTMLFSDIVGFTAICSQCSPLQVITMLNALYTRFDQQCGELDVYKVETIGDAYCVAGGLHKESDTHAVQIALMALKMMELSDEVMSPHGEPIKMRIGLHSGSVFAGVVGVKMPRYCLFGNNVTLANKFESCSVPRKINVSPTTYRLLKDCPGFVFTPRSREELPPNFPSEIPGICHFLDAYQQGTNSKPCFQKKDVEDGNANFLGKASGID
The data set is described as follows: Stimulation of guanylate cyclase from blood platelets (RIA). The format is biochemical. The conditions noted are these: 37° C.

The subject of data set [5] is blood platelets. Description: Inhibition of blood platelet aggregation (aggregometer, ADP). The data set is classed as cell-based, human (healthy testees). To be noted: Platelet, 0.05 h; human PRP, ADP 2 to 4 μM, 3 min incubation, 37° C.; read-out: IC50 (Inhibition of blood platelet aggregation). The method, then: Compounds according to the invention were tested for their inhibition of clumping together (aggregation) of blood platelets (thrombocytes), which is the first phase of the formation of blood clots (thrombi). Such an inhibition may prevent the formation of blood clots and inhibit the development of new thrombi after a diagnosed thrombus.
Citrate stabilized ( 0.38% of sodium citrate, final concentration) venous blood from healthy testees is used, who have not used medicine for at least 8 days. Slight centrifugation (160×g for 10 minutes) results in PRP (blood plasma rich in platelets) which is pipetted. PPP (blood plasma poor in platelets) is obtained by an intense centrifugation (3000×g for 10 minutes) of the remaining blood. The light transmission is measured by the aggregometer (CHRONOLOG). PRP allows nearly no light transmitaaion, while PPP allows complete transmission of light. The PRP is placed in the aggregometer at 37° C. while being stirred by a magnet. Addition of a pro-aggregating substance causes the PRP to aggregate gradually and an increasing light transmission takes place at the same time. At complete aggregation a light transmission corresponding to PPP is obtained. Adnosine diphosphate (ADP) is used as pro-aggregating substance, said substance representing a basic biochemical mechanism for aggregation of blood platelets. The test substances are incubated for 3 minutes in PRP placed in the aggregometer at 37° C. during magnetic stirring. A predetermined positively aggregating dosage of adenosine diphosphate (ADP) (2 to 4 μM) is then added. […] A so-called IC50 -value (that is the concentration inhibiting the aggregation by 50% relative to the control aggregation) is calculated for each test substance by linear regression analysis (log concentration μM as constant ad abscissa and % inhibition as variable ad ordinate). The following known reference substances have been used: nitroglycerine (GTN), sodium nitroprusside (NNP) and SIN-1 (the active metabolite of molsidomine).

The subject of data set [6] is polymorph nuclear leukocytes (PMNs), c-GMP. The data set is described as follows: Stimulation of c-GMP content in PMNs. The format is cell-based, human. To be noted: 37° C., 10 minutes. As to the method: Compounds according to the invention were tested for their ability to increase the content of cyclic guanosine monophosphate (c-GMP), to inhibit the synthesis of the leukotriene B4 (LTB4), and to inhibit the chemotactical movement of polymorph nuclear leukocytes (PMN). The polymorph nuclear leukocytes play a vital part in the cellular part of the inflammation process. At diseases, such as asthma, the mucuos membrane of the respiratory passages is swollen as a result of an inflammation with a significant infiltration of polymorph nuclear leukocytes (PMN's) in particular. Particularly effective substances for the treatment of asthma are such which in addition to relaxing the musculature in the respiratory passages also have an anti-inflammatory effect on the cellular phase of the inflammatory process, that is inhibiting the leukocyte function.
Isolated human PMNs are incubated at 37° C. for 10 minutes, whereafter the content of cyclic guanosine monophosphate (c-GMP) is measured. Further, the synthesis of the LTB4 is determined after stimulation with Ca-ionophore (A23187) and the chemotaxis (controlled movement) towards FMLP (a substance attracting the polymorph nuclear leukocytes, PMNs) is determined.
Three compounds according to the invention and the reference substance SIN-1 were tested for their ability to stimulate the content of cyclic guanosine monophosphate (c-GMP).

Data set [7] has as its system male rats. The conditions noted are these: rat, in vivo, po, 20 mg/kg. The method, then:
as §1
At this test the substances were administered perorally in a dose of 20 mg per kg. as solutions or suspensions once a day for 5 days to groups of 5 animals. Clinical observations were made every day and the above hematological parameters were measured on the third day of the test.

Counter-ions that a name gives are not always drawn. Like-named read-outs stand apart in the source and are kept apart here.

A word on the LD50: it is the dose at which mortality reaches 50%. As for `[NH-]c1n[n+](-c2ccc(C(F)(F)F)cc2)no1` [Example 4], the median lethal dose (LD50) turned out to be 81 mg/kg in data set [1] (female mice) and 89 mg/kg in data set [1] (male mice).
The term EC50 denotes the midpoint of the concentration-response curve. `Cc1cccc(C)c1-[n+]1noc([NH-])n1` [Example 12]: in data set [2], the “% Inhibition of PAI-1 activity” value worked out at 37% and the PAI-1 activity is on record as 2.04 U/10^8 platelets. In addition, the concentration for a half-maximal effect (EC50) in data set [3] was found to be 4900 nM.
For orientation: IC50 means the midpoint of a concentration-inhibition curve. In the case of `Cc1cc(Cl)ccc1-[n+]1noc([NH-])n1` [Example 13, 3-(4-chloro-2-methylphenyl)-1,2,3,4-oxatriazole-5-imine hydrochloride], the figures for the Guanylate cyclase activity in data set [4] (0.01 μM) and in data set [4] (10 μm (so in the source)) were 7642 pmole c-GMP/mg prot. × 15 minutes and 48126 pmole c-GMP/mg prot. × 15 minutes, respectively. Further, the 50% inhibitory concentration (IC50) in data set [5] is 200 nM. The EC50 in data set [3] was found to be 1100 nM.
With `Cc1c(Cl)cccc1-[n+]1noc([NH-])n1` [Example 29, 3-(3-chloro-2-methylphenyl)-1,2,3,4-oxatriazole-5-imine], the Guanylate cyclase activity in data set [4] (0.01 μM) is given as 4407 pmole c-GMP/mg prot. × 15 minutes; in data set [4] (10 μm (so in the source)) it was 61900 pmole c-GMP/mg prot. × 15 minutes. Moreover, the “% Inhibition of PAI-1 activity” value in data set [2] was 39%. In data set [2], this compound registered a PAI-1 activity of 1.97 U/10^8 platelets. The entries for the “c-GMP in PMNs” value in data set [6] (1 μM), in data set [6] (10 μM) and in data set [6] (100 μM) were 209 fmole/10^6 cells, 859 fmole/10^6 cells and 1044 fmole/10^6 cells, respectively. Also, the EC50 in data set [3] is 800 nM.
Take `CC(=O)Oc1ccccc1C(=O)[N-]c1n[n+](-c2cccc(Cl)c2C)no1` [Example 38]: the Guanylate cyclase activity in data set [4] (0.01 μM) was 1024 pmole c-GMP/mg prot. × 15 minutes. Further, in data set [4] (10 μm (so in the source)), the Guanylate cyclase activity was 82100 pmole c-GMP/mg prot. × 15 minutes. In addition, the half-inhibitory concentration (IC50) in data set [5] came to 200 nM. Also, in data set [7], the Clinical observations result is “N.R”, the Hematological parameters entry is recorded as “N.R” and the “Side effects (in words)” value is recorded as “no side effects”. Besides, the 50% effective concentration (EC50) in data set [3] worked out at 3200 nM.
With `COc1ccc(CCNC(=O)[N-]c2n[n+](-c3cccc(Cl)c3C)no2)cc1OC` [Example 47a, 3-(3-chloro-2-methylphenyl)-1,2,3,4-oxatriazole-5-(N-3,4-dimethoxyphenylethylcarbamoyl)imine], the EC50 in data set [3] was determined as 5200 nM.
The same measure, in the same setting: the figure for `COc1ccc(C(=O)[N-]c2n[n+](-c3cccc(Cl)c3C)no2)cc1` [Example 53] is 700 nM.
Take `Cc1c(Cl)cccc1-[n+]1noc([N-]C(=O)c2cccnc2)n1` [Example 54]: the results for the Guanylate cyclase activity in data set [4] (0.01 μM) and in data set [4] (10 μm (so in the source)) were 8139 pmole c-GMP/mg prot. × 15 minutes and 18693 pmole c-GMP/mg prot. × 15 minutes, respectively. Also, the EC50 in data set [3] came out at 600 nM.
